Reference: patent publication US20040143025A1, “Carbon monoxide generating compunds for treatment of vascular, inflammatory and immune disorders” (priority 2002, published 2004)
Where two headings read alike, the source gives them in different places.

Legend:
[1] = mice exposed to gaseous CO at 500 ppm
Procedure: To examine the effect of gaseous CO on the immune system, C57/BL6 mice (B6, Jackson Laboratory, Bar Harbor, Me.) were first exposed to 500 ppm CO in air (Praxair, Danbury, Conn.) for one hour in a sealed chamber before injection of lipopolysaccharide (LPS) (0.3 mg/kg, i.v., Sigma, St Louis, Mo.). After injection, they were exposed to another hour in the CO chamber. Blood samples were collected one hour after LPS injection (through the aortic artery) and the COHb level in whole blood was measured by a whole blood AVOXimeter 4000 (A-VOX Systems, San Antonio, Tex.). Serum samples were separated and were kept at −80° C. until analysis. Serum TNF-α was measured by sandwich ELISA (Biosource, Camarillo, Calif.).
To reveal the therapeutic potential of CO generators, methylene chloride (MC, Sigma, St. Louis, Mo.) was selected as a lead compound. Different concentrations of MC were prepared by using olive oil as a solvent. Mice were treated with MC at 5 mg/kg., 50 mg/kg, and 500 mg/kg, p.o., one hour before LPS administration.

rat liver = test system: rat liver; parameters: species or system Sprague Dawley (SD) rats
Source text: Animals. Male Sprague Dawley (SD) rats weighing between 300-350 g (Harlan Sprague Dawley, Indianapolis, Ind.) were used. Animals were fed standard rodent chow and water and libitum and cared according to guidelines approved by the American Association of Laboratory Animal Care.
Isolated perfusion liver apparatus. An isolated perfusion liver apparatus was used, as described in Amersi et al., supra, and Maulik et al., Circulation 94:398-406 (1996). In brief, syngeneic rat blood, obtained for each experiment from four donor animals, was diluted to a hematocrit of 15% with Krebs Ringer Bicarbonate Buffer (mM: NaCl 118, KH2POF 1, MgSO4 0.9, CaCl2 2.5, dextrose 11.1, and NaHCO2 25), and maintained at pH of 7.4. The perfusate was pumped from a heated reservoir that warmed the perfusate to 37° C. through silastic tubing oxygenator connected to a flow meter that measured portal vein blood flow (Cole Palmer Instruments, Chicago, Ill.). Portal pressure was kept constant via a pressure monometer connected to a T fitting in the portal vein canula. […] During the experiment, pH, temperature and oxygenation were kept constant.
Ex vivo cold ischemia model. SD rats underwent isoflourane anesthesia and systemic heparinization. […] The livers were then stored for 24 h at 4° C. in UW solution, followed by ex-vivo reperfusion for 1-2 h on an isolated perfusion liver apparatus. Portal vein blood flow, pressure, and bile production were recorded every 30 min. Blood samples were collected at 30 min intervals and serum glutamic oxaloacetic transaminase (sGOT) levels were measured using an autoanalyzer from ANTECH Diagnostics (Irvine, Calif.). At the conclusion of experiment, a portion of the liver was snap frozen for mRNA extraction/Western blot analyses; the remaining samples were fixed in formalin for H&E staining.
The role of CO—HO-1 pathway in hepatic I/R injury was studied in five major treatment groups (n=4.8 rats/group). In Group 1, the extent of I/R injury was contrasted between livers perfused ex-vivo with blood saturated with CO (300 parts per million [ppm]; 0.03% balanced air) vs. air alone (21% O2). As NO may enhance HO-1 expression (Brouard et al., supra), we then investigated a link between the two gaseous molecules in Group 2 livers, which were perfused with CO supplemented with 25 mM NG-nitro-L-arginine methyl ester hydrochloride (L-NAME; Sigma Chemicals, St. Louis, Mo.), an inducible NO inhibitor. […] To analyze as to whether exogenous CO can substitute for HO-1 in preventing I/R insult, Group 4 rats were treated 24 h prior to liver procurement with ZnPP)(1.5 mg/kg/i.p; Porphyrin Products, Logan Utah), an HO-1 inhibitor, followed by ex vivo perfusion with CO. […] Brouard et al., supra. Therefore, Group 5 rats were pre-treated 60 min before harvest with p38 MAPK inhibitor, SB203580, a pyridinyl imidazol (25 mg/kg orally; Sigma). In addition, prior to reperfursion with CO, SB203580 (20 μM) was added to the perfusate.

HO-1 [2] = assay: HO-1 enzymatic activity in liver homogenates; assay type: biochemical, rat; settings: liver after perfusion; ZnPP = 1.5 mg/kg i.p. 24 h before harvest then CO perfusion; CO = CO only
Procedure: HO-1 Enzymatic Activity. Livers were homogenized on ice in a Tris-HCl lysis buffer (pH 7.4) containing 0.5% Triton X-100 and protease inhibitors. Samples were frozen in small aliquots until use. Homogenates (100 μl) were mixed with 0.8 mM NADPH, 0.8 mM glucose-6-phosphate 1.0 unit G-60P dehydrogenase, 1 mM MgCl2 and […] purified rat liver biliverdin reductase at 4° C. The reaction was initiated by the addition of hemin (final concentration 0.25 mM). The reaction mixture was incubated at 37° C. in the dark for 15 min. At the end of incubation period, any insoluble material was removed by centrifugation and supernatants were analyzed for bilirubin concentration. An extinction coefficient of 40 mM^−1 cm^−1 at A 460-530 was used to calculate the amount of bilirubin formed. Controls included naive samples in the absence of the NADPH generating system and all the ingredients of the reaction mixture in the absence of graft homogenates. Biliverdin reductase was purified from rat liver, as described in Browne and Ultrich, Mol. Pharmacol. 32:497-504 (1987).

HO-1 [3] = assay: Western blot of liver samples, HO-1; parameters: species or system rat; settings: 2 h after perfusion
Procedure: Western blots. Protein was extracted from liver samples with PBSTDS buffer (50 mM Tris, 150 mM NaCl, 0.1% SDS, 1% sodium deoxycholate, and 1% triton X-100, pH 7.2). Proteins (30 μg/sample) in SDS-loading buffer (50 mM Tris, pH 7.6, 10% glycerol, 1% SDS) were subjected to 12% SDS-polyacrylamide gel electrophoresis and transferred to nitrocellulose membrane (Bio-Rad, Hercules, Calif.). The gel was stained with coomassie blue to document equal protein loading. The membrane was blocked with 3% dry milk and 0.1% Tween 20 (USB, Cleveland, Ohio) in PBS and incubated with rabbit anti-rat HO-1 or iNOS polyclonal Abs (SangStat, Fremont, Calif.). Relative protein quantities were determined using a densitometer (Kodak Digital Science 1D Analysis Software, Rochester, N.Y.).

[4] = 24 h cold storage, 2 h reperfusion, CO 300 ppm vs air alone

SMILES: [C-]#[O+] [CO, carbon monoxide]
- O2Hb levels [1]: 79.18±1.569%
- bile production (rat liver; [4]): significantly more bile
- portal vein resistance (rat liver; [4]): significantly decreased
- sGOT levels (rat liver; CO 300 ppm alone, 2 h reperfusion): 163±27 IU/L
- sGOT levels (rat liver; CO 300 ppm, 1 h reperfusion): 79±14 IU/L
- HO-1 enzyme activity (HO-1 [2]): 2.25±0.18 nmol of bilirubin/mg/protein/min
- HO-1 protein accentuated (Western blot) vs air alone (HO-1 [3]): ca. 3 fold
